# Measurements as given in patent US20080125414A1, “Method of Treatment” (priority 2002, published 2008).
# “And” between values parts separate entries of the source, which are not always exact repeats. Equal entries are not always repeated.
# Assays:
# Assay type in all cases: in vivo
# [1] = system: patients with moderate or severe neuropathic pain; assay: Multi-centre, double blind placebo controlled crossover study of devazepide as adjunctive therapy to strong opioids
# [2] = system: patients with neuropathic pain; assay: Open label multicentre continuation study of devazepide (clinical assessment study); conditions: devazepide 1.25 mg, 2.5 mg or 5.0 mg twice daily for up to 26 weeks
# Source text: Patients who took part in the study had pain with a neuropathic element, and were taking regular doses of strong opioids. […] The primary objective of this study was to compare descriptive and visual analogue scale (VAS) assessments of pain and pain relief in patients with neuropathic pain. […] Devazepide treatment was continued for a period of up to six months. During the study patients were required to remain on regular doses of opioids at a dose prescribed by the investigator. Patients were assessed at clinic visits at week 1, week 2 (dose escalation) and thereafter at routine monthly clinic visits. At weekly intervals for the first eight weeks and at monthly intervals thereafter, patients recorded pain and global pain relief using VAS and descriptive pain questionnaires. The questionnaires were returned to the Investigator at the monthly visits. At each clinic visit the Investigator assessed safety and the patients' pain relief, reviewed the dosage, and decided if devazepide treatment should be continued.
# [3] = system: patient undergoing opioid therapy; assay: Clinical studies of devazepide in combination with an opioid (opioid dose reduction); conditions: for reduction of opioid dose: clinical studies, devazepide with opioid
structure (smiles),measurement,setting,value
"CN1C(=O)[C@@H](NC(=O)c2cc3ccccc3[nH]2)N=C(c2ccccc2)c2ccccc21 [devazepide, 3s-(−) 1,3dihydro-3-(2-indolecarbonylamino)-1-methyl-5-phenyl-2H-1,4-benzodiazepin-2-one]",Analgesic use expressed as a percentage of pre-treatment use (sum of daily dose),[1]; in vivo,100% and 67%
same,Analgesic use expressed as a percentage of pre-treatment use (sum of daily dose),"[1]; patient ap06/05, analgesic morphine (mg), devazepide 1.25 mg twice daily for two weeks",104%
same,Analgesic use expressed as a percentage of pre-treatment use (sum of daily dose),"[1]; patient ap06/05, analgesic morphine (mg), devazepide 5 mg twice daily for two weeks",100%
same,Analgesic use expressed as a percentage of pre-treatment use (sum of daily dose),"[1]; patient ap06/05, analgesic tramadol (mg), devazepide 1.25 mg twice daily for two weeks",79%
same,Analgesic use expressed as a percentage of pre-treatment use (sum of daily dose),"[1]; patient ap06/05, analgesic tramadol (mg), devazepide 5 mg twice daily for two weeks",54%
same,Analgesic use expressed as a percentage of pre-treatment use (sum of daily dose),"[1]; patient gg01/01, analgesic co-codamol (tablets), devazepide 1.25 mg twice daily for two weeks",106%
same,Analgesic use expressed as a percentage of pre-treatment use (sum of daily dose),"[1]; patient gg01/01, analgesic co-codamol (tablets), devazepide 5 mg twice daily for two weeks",78%
same,Analgesic use expressed as a percentage of pre-treatment use (sum of daily dose),"[1]; patient gg03/03, analgesic morphine (mg), devazepide 1.25 mg twice daily for two weeks",55%
same,Analgesic use expressed as a percentage of pre-treatment use (sum of daily dose),"[1]; patient gg03/03, analgesic morphine (mg), devazepide 5 mg twice daily for two weeks",93%
same,Analgesic use expressed as a percentage of pre-treatment use (sum of daily dose),"[1]; patient ng02/02, analgesic diclofenac (mg), devazepide 1.25 mg twice daily for two weeks",17%
same,Analgesic use expressed as a percentage of pre-treatment use (sum of daily dose),"[1]; patient ng02/02, analgesic diclofenac (mg), devazepide 5 mg twice daily for two weeks",50%
same,Analgesic use expressed as a percentage of pre-treatment use (sum of daily dose),"[1]; patient ng02/02, analgesic morphine (mg), devazepide 1.25 mg twice daily for two weeks",87%
same,Analgesic use expressed as a percentage of pre-treatment use (sum of daily dose),"[1]; patient ng02/02, analgesic morphine (mg), devazepide 5 mg twice daily for two weeks",84%
same,Analgesic use expressed as a percentage of pre-treatment use (sum of daily dose),"[1]; patient ng05/05, analgesic morphine (mg), devazepide 1.25 mg twice daily for two weeks",104%
same,Analgesic use expressed as a percentage of pre-treatment use (sum of daily dose),"[1]; patient ng05/05, analgesic morphine (mg), devazepide 5 mg twice daily for two weeks",100%
same,Analgesic use expressed as a percentage of pre-treatment use (sum of daily dose),"[1]; patient ng05/05, analgesic paracetamol (mg), devazepide 1.25 mg twice daily for two weeks",48%
same,Analgesic use expressed as a percentage of pre-treatment use (sum of daily dose),"[1]; patient ng05/05, analgesic paracetamol (mg), devazepide 5 mg twice daily for two weeks",14%
same,Analgesic use expressed as a percentage of pre-treatment use (sum of daily dose),"[1]; patient sj03/03, analgesic morphine (mg), devazepide 1.25 mg twice daily for two weeks",93%
same,Analgesic use expressed as a percentage of pre-treatment use (sum of daily dose),"[1]; patient sj03/03, analgesic morphine (mg), devazepide 5 mg twice daily for two weeks",97%
same,Analgesic use expressed as a percentage of pre-treatment use (sum of daily dose),"[1]; patient sj03/03, analgesic morphine (ml), devazepide 1.25 mg twice daily for two weeks",13%
same,Analgesic use expressed as a percentage of pre-treatment use (sum of daily dose),"[1]; patient sj03/03, analgesic morphine (ml), devazepide 5 mg twice daily for two weeks",5%
same,Analgesic use expressed as a percentage of pre-treatment use (sum of daily dose),"[1]; patient sj10/73, analgesic dihydrocodeine (mg), devazepide 1.25 mg twice daily for two weeks",100%
same,Analgesic use expressed as a percentage of pre-treatment use (sum of daily dose),"[1]; patient sj10/73, analgesic dihydrocodeine (mg), devazepide 5 mg twice daily for two weeks",50%
same,Analgesic use expressed as a percentage of pre-treatment use (sum of daily dose),"[1]; patient sj10/73, analgesic morphine (mg), devazepide 1.25 mg twice daily for two weeks",100%
same,Analgesic use expressed as a percentage of pre-treatment use (sum of daily dose),"[1]; patient sj10/73, analgesic morphine (mg), devazepide 5 mg twice daily for two weeks",98%
same,Analgesic use expressed as a percentage of pre-treatment use (sum of daily dose),"[1]; patient sj10/73, analgesic paracetamol (mg), devazepide 1.25 mg twice daily for two weeks",75%
same,Analgesic use expressed as a percentage of pre-treatment use (sum of daily dose),"[1]; patient sj10/73, analgesic paracetamol (mg), devazepide 5 mg twice daily for two weeks",50%
same,patients who appeared to achieve long-term pain relief,"[2]; of seventeen patients, long-term = 5-26 weeks, with regular opioids",ten
same,daily opioid dose,[2]; several patients,markedly reduced
same,reduction of opioid dose,[3]; in others,≤ 75%
same,reduction of opioid dose,[3]; in some cases,≤ 95%
same,effect in combination with an opioid,[3]; opioid dose reduced concurrent with improved analgesia,superpotentiating
